From patent EP0641363B1, “DETERGENT COMPOSITIONS CONTAINING COPOLYMERS” (UNILEVER PLC, priority 1992, dated 1993)

Experiment: Calcium binding: titration with calcium chloride solution using a calcium-ion-selective electrode; binding constant calculated by the method of Tanford
Procedure: The calcium binding properties of the polymers were measured by titration of the samples with a calcium chloride solution using a calcium-ion-selective electrode of the type Radiometer (Trade Mark) F2112Ca. The calcium binding constant pKCa2+ was calculated by the method of C Tanford in Chapter 8, Multiple Equilibria, Physical Chemistry of Macromolecules, John Wiley, New York, 1961.
Values of pKCa2+ of 4.0 or above represent materials likely to be useful as detergency builders, either alone or in conjunction with other builder materials. The value for sodium tripolyphosphate is 6.0, and any figure higher than this indicates excellent building.

pKCa2+: 6.0
Compound: O=P(O)(O)OP(=O)(O)OP(=O)(O)O [sodium tripolyphosphate]
